Consider two compounds from patent publication US20100261711A1, “SELECTIVE ANTICONVULSANT AGENTS AND THEIR USES” (WiSys Technology Foundation, priority 2009, published 2010).

Data set [1] concerns Pilocarpine-induced Status. Briefly: Pilocarpine-induced status. Format: in vivo, rats. The note with it: for Pilocarpine-induced Status, Time to Peak Effect, ratio of animals: Time 0 Hrs.
A short description of data set [2]: Plasma levels by LC-MS/MS (tolerance study). Format: in vivo, Sprague Dawley rats. As to conditions: for Conc HZ-166 in plasma, individual subjects: 35.5 mg/kg. As for the experimental part: Immediately after testing, blood was collected via cardiac puncture. Samples were spun down, plasma was collected and acetonitrile added. Samples were frozen at −80° C. and shipped to a commercial laboratory (Enthalpy) for analysis.
Group 3 (8 subjects) was dosed with vehicle only.

Data set [3] deals with Metrazol-induced clonic seizures. As to the kind of experiment: Tolerance study, 5 day dosing, scMet. The format is in vivo, Sprague Dawley rats. Here is the method: The dose utilized was the predetermined ED50 against the scMet seizure model. In this model a subcutaneous injection of the convulsant Metrazol is used to produce highly reproducible clonic seizures in laboratory animals. […] Animals are pretreated with various doses of the test compound. At the time of peak effect (TPE) of the test compound, a dose of Metrazol that induce convulsions in 97% of animals (CD97: 85 mg/kg mice) is injected into a loose fold of skin in the midline of the neck. The animals are placed in isolation cages to minimize stress (Swinyard et al., 1961) and observed for the next 30 minutes for the presence or absence of a seizure. An episode of clonic spasms, approximately 3-5 seconds, of the fore and/or hindlimbs, jaws, or vibrissae is taken as the endpoint.
In this study, Sprague Dawley rats were used (average weight 150 gm). […] Finally, Group 3 was the solvent control group. These animals were administered the test solvent (methylcellulose 0.5%) as a control. Here methylcellulose was administered i.p. for all 5 days.
On day 5, all animals from each group were tested in the scMet model using the previously determined time of peak effect (TPE) of 15 minutes. Immediately after testing, blood was collected via cardiac puncture. Samples were spun down, plasma was collected and acetonitrile added. Samples were frozen at −80° C. and shipped to a commercial laboratory (Enthalpy) for analysis.

Where “and” joins values, the source holds several entries; their conditions need not be identical. Identical values can stand only once. Entries after “also recorded” stand apart in the source; their conditions may differ.

For `C#Cc1ccc2c(c1)C(c1ccccc1)=N[C@H](C)c1nnc(C)n1-2` [SH-TR-CH3 (146), (4R)-8-Ethynyl-1,4-dimethyl-6-phenyl-4H-benzo[f][1,2,4]triazolo[4,3-a][1,4]diazepine], the “Pilocarpine-induced Status, Time to Peak Effect, ratio of animals” value in data set [1] (Rats, 100 mg/kg, 0.25 Hr) is recorded as 0/2; in data set [1] (Rats, 100 mg/kg, 0.5 Hr) it was 0/2; in data set [1] (Rats, 100 mg/kg, 1.0 Hr), 0/2; in data set [1] (Rats, 100 mg/kg, 2.0 Hr) it was 0/2; in data set [1] (Rats, 100 mg/kg, 4.0 Hr), 0/2; in data set [1] (Rats, 300 mg/kg, 0.25 Hr), 0/2. Moreover, the “Pilocarpine-induced Status, Time to Peak Effect, ratio of animals” value in data set [1] (Rats, 300 mg/kg, 0.5 Hr) is given as 0/2; in data set [1] (Rats, 300 mg/kg, 1.0 Hr) it was 0/2; in data set [1] (Rats, 300 mg/kg, 2.0 Hr), 0/2; in data set [1] (Rats, 300 mg/kg, 4.0 Hr) it was 0/2; in data set [1] (Rats, 500 mg/kg, 0.25 Hr, Ataxia noted), 0/2^12; in data set [1] (Rats, 500 mg/kg, 0.5 Hr, Ataxia noted), 0/2^12. Moreover, the “Pilocarpine-induced Status, Time to Peak Effect, ratio of animals” value in data set [1] (Rats, 500 mg/kg, 1.0 Hr, Ataxia noted) is 0/2^12; in data set [1] (Rats, 500 mg/kg, 2.0 Hr, Ataxia noted), 0/2^12; in data set [1] (Rats, 500 mg/kg, 4.0 Hr), 0/2. Further, the “Pilocarpine-induced Status, ratio of animals” value in data set [1] (Rats, 600 mg/kg, 0 Hrs post first Stage III seizure) is reported as 4/7; in data set [1] (Rats, 1,000 mg/kg, 0.5 Hrs post first Stage III seizure, footnote c: death), 1/7^c.

With `C#Cc1ccc2c(c1)C(c1ccccn1)=NCc1c(C(=O)OCC)ncn1-2` [Hz166 (106), 8-Acetylenyl-6-pyridin-2-yl-4H-benzo[f]imidazo[1,5-a][1,4]diazepine-3-carboxylic acid ethyl ester], the entries for the “HZ-166, plasma average with outliers excluded” value in data set [2] (Group 1 (five days dosing)) and in data set [2] (Group 2 (day 5 only)) were 0.334 nmol/mL and 0.533 nmol/mL, respectively. For the same compound, the “Conc HZ-166 in plasma, individual subjects” value in data set [2] (Group 1: HZ-166 35.5 mg/kg ip for five days, blood after test on day 5) was 94.3 ng/mL and 85.4 ng/mL and 168 ng/mL and 138 ng/mL and BLQ < (1.00) ng/mL and 118 ng/mL and 198 ng/mL and 30.5 ng/mL; in data set [2] (Group 2: HZ-166 35.5 mg/kg ip on day 5 only), 202 ng/mL and 165 ng/mL and 8.67 ng/mL and 273 ng/mL and 210 ng/mL and 93.3 ng/mL and 176 ng/mL. In addition, the “protection against scMet induced seizures” value in data set [3] (Group 1 chronic dosing, day 5) is reported as “approximately 40%”. Moreover, the “scMet, animals protected/tested” value in data set [3] (Group 1 chronic dosing: 35.5 mg/kg ip once daily 5 days, tested day 5 at TPE 15 min, 35.5 mg/kg) is 3/8 and 3/8 protected (chronic dosing); in data set [3] (Group 2 acute dosing: single 35.5 mg/kg ip dose on day 5, TPE 15 min, 35.5 mg/kg), 1/8 and 1/8 (acute dosing); in data set [3] (original preliminary study (different rats), acutely treated group), 5/8; in data set [3] (original preliminary study (different rats), chronically treated group) it was 5/8. Also, the “tolerance to the anticonvulsant effects” value in data set [3] (rats, dosed 5 days at the calculated scMet ED50) was “didn't develop tolerance; also recorded: did not develop tolerance”.
